According to ChEMBL document CHEMBL3627650, “Design, synthesis, and evaluation of new endomorphin analogs with enhanced central antinociception after peripheral administration” (Bioorg Med Chem Lett, 2015):
The source made the active and inactive calls. The rule behind the calls is not given here.

Key:
Mu-type opioid receptor [1] = molecular target: T1, Mu-type opioid receptor (Homo sapiens, UniProt P35372); assay: Displacement of [3H]-DAMGO from mu opioid receptor (unknown origin) transfected in HEK293 cells; format: cell-based
T1 sequence (P35372 whole entry): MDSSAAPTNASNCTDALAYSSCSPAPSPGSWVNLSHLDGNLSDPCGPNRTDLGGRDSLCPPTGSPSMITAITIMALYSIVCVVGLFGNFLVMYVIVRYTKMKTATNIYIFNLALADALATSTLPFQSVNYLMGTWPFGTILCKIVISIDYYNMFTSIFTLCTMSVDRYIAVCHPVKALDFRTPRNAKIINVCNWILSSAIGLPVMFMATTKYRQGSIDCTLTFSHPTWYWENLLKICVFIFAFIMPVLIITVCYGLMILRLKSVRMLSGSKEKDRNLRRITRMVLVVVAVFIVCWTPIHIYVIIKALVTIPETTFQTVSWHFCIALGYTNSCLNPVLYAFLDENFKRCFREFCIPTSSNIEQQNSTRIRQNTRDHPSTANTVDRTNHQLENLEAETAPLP

[2] = molecular target: Delta-type opioid receptor (Homo sapiens, UniProt P41143); assay: Displacement of [3H]-DPDPE from delta opioid receptor (unknown origin) transfected in HEK293 cells; format: cell-based
Sequence of Delta-type opioid receptor (P41143 whole entry): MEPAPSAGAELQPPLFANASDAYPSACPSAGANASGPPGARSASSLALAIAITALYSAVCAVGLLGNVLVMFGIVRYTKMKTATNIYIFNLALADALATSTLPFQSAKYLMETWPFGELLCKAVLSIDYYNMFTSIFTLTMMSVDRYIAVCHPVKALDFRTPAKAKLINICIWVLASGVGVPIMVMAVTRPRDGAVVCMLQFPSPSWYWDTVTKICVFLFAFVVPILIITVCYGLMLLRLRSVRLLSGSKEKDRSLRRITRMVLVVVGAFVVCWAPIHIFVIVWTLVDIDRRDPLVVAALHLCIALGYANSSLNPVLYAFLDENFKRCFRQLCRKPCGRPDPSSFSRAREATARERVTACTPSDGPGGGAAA

Homo sapiens = species on record: Homo sapiens; assay: Selectivity ratio of Ki for delta opioid receptor (unknown origin) to Ki for mu opioid receptor (unknown origin)
Mu-type opioid receptor [3] = molecular target: T1, Mu-type opioid receptor; assay: Agonist activity at mu opioid receptor (unknown origin) transfected in HEK293 cells assessed as inhibition of forskolin-stimulated cAMP production; format: functional, cell-based
Mus musculus [4] = assay: Antinociceptive activity in icv dosed mouse assessed as inhibition of tail flick measured at 5 to 60 mins; format: functional; details: for ED50: central
Mus musculus [5] = assay: Antinociceptive activity in mouse assessed as inhibition of tail flick at 2 to 20 nmol, icv; format: functional, organism-based; details: TDE = time-dependent effect
Mus musculus [6] = assay: Antinociceptive activity in mouse assessed as inhibition of tail flick at 20 nmol, icv in presence of opioid receptor antagonist naloxone; format: functional, organism-based
Mus musculus [7] = assay: Antinociceptive activity in iv dosed mouse assessed as inhibition of tail flick measured at 5 to 60 mins; format: functional, organism-based
Mus musculus [8] = assay: Antinociceptive activity in mouse assessed as inhibition of tail flick at 16 mg/kg, iv measured at 5 to 60 mins relative to control; format: functional
Mus musculus [9] = assay: Antinociceptive activity in mouse assessed as inhibition of tail flick at 4 to 16 mg/kg, iv measured at 60 mins relative to control; format: functional
Mus musculus [10] = assay: Antinociceptive activity in mouse assessed as inhibition of tail flick at 16 mg/kg, iv in presence of opioid receptor antagonist naloxone; format: functional, organism-based
Mus musculus [11] = assay: Antinociceptive activity in mouse assessed as inhibition of tail flick at 16 mg/kg, iv in presence of opioid receptor antagonist naloxone methiodide; format: functional, organism-based
Mus musculus [12] = assay: Antinociceptive activity in iv dosed mouse acute phase inflammatory pain model assessed as inhibition of formalin-induced licking/biting behavior; format: functional, organism-based
Mus musculus [13] = assay: Antinociceptive activity in iv dosed mouse prolonged tonic phase inflammatory pain model assessed as inhibition of formalin-induced licking/biting behavior; format: functional, organism-based
Mus musculus [14] = assay: Antinociceptive activity in mouse acute phase inflammatory pain model assessed as inhibition of formalin-induced licking/biting behavior at 16 mg/kg, iv in presence of opioid receptor antagonist naloxone; format: functional, organism-based
Mus musculus [15] = assay: Antinociceptive activity in mouse prolonged tonic phase inflammatory pain model assessed as inhibition of formalin-induced licking/biting behavior at 16 mg/kg, iv in presence of opioid receptor antagonist naloxone; format: functional, organism-based
Mus musculus [16] = assay: Antinociceptive activity in mouse assessed as inhibition of tail flick at 2 to 20 nmol, icv measured up to 30 mins relative to control; format: functional
Mus musculus [17] = assay: Antinociceptive activity in mouse assessed as inhibition of tail flick at 2 to 20 nmol, icv measured after 30 mins; format: functional, organism-based
Mus musculus [18] = assay: Antinociceptive activity in mouse acute phase inflammatory pain model assessed as inhibition of formalin-induced licking/biting behavior at 4 mg/kg, iv; format: functional, organism-based
Mus musculus [19] = assay: Antinociceptive activity in mouse prolonged tonic phase inflammatory pain model assessed as inhibition of formalin-induced licking/biting behavior at 4 mg/kg, iv; format: functional, organism-based
Mus musculus [20] = assay: Antinociceptive activity in mouse assessed as inhibition of tail flick at 4 mg/kg, iv measured at 5 to 60 mins; format: functional, organism-based

C=C(C(N)=O)[C@H](NC(=O)[C@H](Cc1c[nH]c2ccccc12)NC(=O)[C@@H]1CCCN1C(=O)[C@@H](N)Cc1ccc(O)cc1)c1ccsc1
Ki (Mu-type opioid receptor [1]): 0.515 nM | Ki [2]: 13300 nM | Ratio Ki (Homo sapiens): 25800 | EC50 (Mu-type opioid receptor [3]): 0.0643 nM | Emax (Mu-type opioid receptor [3]): 97% | Activity (Mus musculus [4]): Dose-dependent effect | ED50 (Mus musculus [4]): 0.00223 µmol/kg | Activity (Mus musculus [5]): tde | Activity (Mus musculus [6]): inactive | Activity (Mus musculus [7]): Dose-dependent effect | MPE (Mus musculus [8]): 89.8% | MPE (Mus musculus [9]): 25% | Activity (Mus musculus [10]): inactive | Activity (Mus musculus [11]): Active | Activity (Mus musculus [12]): Dose-dependent effect | Activity (Mus musculus [13]): Dose-dependent effect | Activity (Mus musculus [14]): inactive | Activity (Mus musculus [15]): inactive

NC(=O)[C@H](Cc1ccccc1)NC(=O)[C@H](Cc1c[nH]c2ccccc12)NC(=O)[C@@H]1CCCN1C(=O)[C@@H](N)Cc1ccc(O)cc1 [ENDOMORPHIN-1]
MPE (Mus musculus [16]): 52.1% | Activity (Mus musculus [17]): inactive | Activity (Mus musculus [18]): inactive | Activity (Mus musculus [19]): inactive | Activity (Mus musculus [20]): inactive

C=C(C(N)=O)[C@H](NC(=O)[C@H](Cc1c[nH]c2ccccc12)NC(=O)[C@@H]1CCCN1C(=O)[C@@H](N)Cc1ccc(O)cc1)c1cccs1
Ki (Mu-type opioid receptor [1]): 0.565 nM | Ki [2]: 12000 nM | Ratio Ki (Homo sapiens): 21300 | EC50 (Mu-type opioid receptor [3]): 0.0629 nM | Emax (Mu-type opioid receptor [3]): 98.2% | Activity (Mus musculus [4]): Dose-dependent effect | ED50 (Mus musculus [4]): 0.00207 µmol/kg | Activity (Mus musculus [5]): tde | Activity (Mus musculus [6]): inactive | Activity (Mus musculus [7]): Dose-dependent effect | MPE (Mus musculus [8]): 86.6% | MPE (Mus musculus [9]): 25% | Activity (Mus musculus [10]): inactive | Activity (Mus musculus [11]): Active | Activity (Mus musculus [12]): Dose-dependent effect | Activity (Mus musculus [13]): Dose-dependent effect | Activity (Mus musculus [14]): inactive | Activity (Mus musculus [15]): inactive
